Consider 2 compounds from PMC4933562, “Bile salt receptor complex activates a pathogenic type III secretion system” (eLife, 2016).

One test addresses T1, VtrC (VPA1333) (Vibrio parahaemolyticus, UniProt Q87GI3+Q87GI4).
T1 construct: periplasmic domains: VtrC aa 31–161 (N-terminal His-tagged) co-expressed with VtrA aa 161–253; with VtrA (VPA1332), periplasmic domain aa 161–253, obligate 1:1 heterodimer
Briefly: ITC (n = […]) and […] Å co-crystal structure. Type of test: binding.

The target of test [1] is N-terminal His-tagged VtrC periplasmic domain (aa 31-161) (Vibrio parahaemolyticus). Description: SEC. (In general: Size exclusion chromatography separates by hydrodynamic size, large species first.)

pKd: −log10 of the molar value.

As a reminder, the pKd is the negative decadic logarithm of the Kd, by convention in mol/L. Higher therefore signals a small Kd.

In turn, `C[C@H](CCC(=O)NCCS(=O)(=O)O)[C@H]1CC[C@H]2[C@@H]3CC[C@@H]4C[C@H](O)CC[C@]4(C)[C@H]3C[C@H](O)[C@]12C` [TDC, taurodeoxycholate] gave a pKd on VtrC (VPA1333) of 6.50.
For the compound “VtrA periplasmic domain (aa 161-253), co-expressed with VtrC (domain or fragment)”, the stoichiometry N (VtrA per VtrC) in test [1] amounted to 1.
